System: human iPSC
Experiment: Jak2 V617F single base pair editing in hiPSC, HR and NHEJ by MiSeq
Format: cell-based
From the text: FIGS. 6A-C. Bcl-2 overexpression increases the efficiency of engineering single base pair changes using ssODN donors in human iPSC. FIG. 6A. A sgRNA was designed to target exon 14 of human JAK2. The V617F mutation was encoded within 110 bp ssODN donors (in either the plus or minus orientation) or a plasmid containing 1.9 kb and 1.3 kb flanking homology arms. Small triangles indicate the primer sites for the genotyping PCR reaction outside the ssODN sequence. Plain human iPSC were transfected with 2 μg “Cas9 only sgRNA” or “Cas9 Bcl-2 sgRNA” expression plasmid and/or 10 μM ssODN or 2 μg V617F plasmid donor. 17 days later, cells were harvested for genomic DNA purification. The genomic region around exon 14 was PCR amplified and analyzed by MiSeq. FIG. 6B. […] The percent of MiSeq reads containing the Jak2 V617F mutation (HR) or indel mutations (NHEJ) is indicated together with a plot of bp position along the PCR product versus the number of sequencing reads. […]
A second round of nested PCR with PCR index primers sold under the trademark NEXTERA™ index primers (IIlumina) was used to add barcodes and remaining adaptor sequences. Both PCR reactions were supplemented with fluorescent dye sold under the trademark SYBR® Green (Invitrogen) and monitored on a quantitative PCR machine to prevent over-amplification. […]

Bcl-2: B cell lymphoma 2 protein, anti-apoptotic, overexpressed from lentivirus or Cas9 plasmid
increase of absolute recombination frequency (HR) (oligo (ssODN) donors, Bcl-2 on the Cas9 plasmid): 2-4 fold | absolute recombination frequency (HR) (plasmid donor, Bcl-2 on the Cas9 plasmid (from 25% without)): 39%

Source: patent publication US11459586B2, “Methods for increasing efficiency of nuclease-mediated gene editing in stem cells” (President and Fellows of Harvard College, priority 2016, dated 2022)
